In experiment [1] the target is T1, MAGL (Mus musculus (Mouse), UniProt O35678). Kind of experiment: In vitro competitive activity-based protein profiling, MAGL (mouse). The experiment is classed as biochemical. To be noted: for inhibition at 1 µM: read-out: MAGL % inh. 1 μM (mouse). In short, it runs like this:
(§1)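 Residual MAGL and FAAH activity came from in-gel fluorescence after competition between inhibitor (30 min preincubation, 37° C) and the activity-based probe FP-Rh or HT-01 (30 min, 37° C) in mouse or human tissue or cell proteomes.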

The target in experiment [2] is FAAH (Mus musculus (Mouse), UniProt O08914). Nature of the experiment: In vitro competitive activity-based protein profiling, FAAH (mouse). To be noted: for inhibition at 1 µM: read-out: FAAH % inh. 1 μM (mouse). The class given is biochemical. The procedure, abridged:
as §1

Experiment [3] concerns the target T1, MAGL. Kind of experiment: Mouse brain proteomes from inhibitor treated mice (oral gavage, 4 h), MAGL. The experiment is classed as in vivo. The note with it: read-out: MAGL % inh. 5 mg/kg (mouse). The procedure:
Preparation of Mouse Brain Proteomes from Inhibitor Treated Mice.
Inhibitors were administered to wild-type C57Bl/6J by oral gavage in a vehicle of polyethylene glycol. Each animal was sacrificed 4 h following administration and brain proteomes were prepared and analyzed according to previously established methods (See Niphakis, M. J., et al. (2011) ACS Chem. Neurosci. and Long, J. Z., et al. Nat. Chem. Biol. 5:37-44).

The target of experiment [4] is MAGL (Homo sapiens (Human), UniProt Q99685). Kind of experiment: In vitro competitive activity-based protein profiling, MAGL (human). The experiment is classed as biochemical. To be noted: 10 μM, human proteome; read-out: MAGL % inh. 10 μM (human). The procedure:
(§2) In Vitro Competitive Activity-Based Protein Profiling.
(§3) Proteomes (mouse brain membrane fraction or cell lysates for mouse assays; human prefrontal cortex or cell membrane fractions for human assays) (50 μL, 1.0 mg/mL total protein concentration) were preincubated with varying concentrations of inhibitors at 37° C. After 30 min, FP—Rh or HT-01 (1.0 μL, 50 μM in DMSO) was added and the mixture was incubated for another 30 min at 37° C. Reactions were quenched with SDS loading buffer (15 μL-4×) and run on SDS-PAGE. Following gel imaging, serine hydrolase activity was determined by measuring fluorescent intensity of gel bands corresponding to MAGL and FAAH using ImageJ 1.43u software.

The target in experiment [5] is FAAH (Homo sapiens (Human), UniProt O00519). Kind of experiment: In vitro competitive activity-based protein profiling, FAAH (human). The experiment is classed as biochemical. The note with it: 10 μM, human proteome; read-out: FAAH % inh. 10 μM (human). The protocol:
as §2, §3

The source of these data is patent US10323038B2, “Pyrazole compounds and methods of making and using same” (ABIDE THERAPEUTICS, INC., priority 2015, dated 2019).

SMILES strings stand for the structures.

Broadly, the IC50 is the concentration at which inhibition is half-maximal. The low end stands for higher potency, the high end for lower potency.

T1 sequence (O35678 whole entry): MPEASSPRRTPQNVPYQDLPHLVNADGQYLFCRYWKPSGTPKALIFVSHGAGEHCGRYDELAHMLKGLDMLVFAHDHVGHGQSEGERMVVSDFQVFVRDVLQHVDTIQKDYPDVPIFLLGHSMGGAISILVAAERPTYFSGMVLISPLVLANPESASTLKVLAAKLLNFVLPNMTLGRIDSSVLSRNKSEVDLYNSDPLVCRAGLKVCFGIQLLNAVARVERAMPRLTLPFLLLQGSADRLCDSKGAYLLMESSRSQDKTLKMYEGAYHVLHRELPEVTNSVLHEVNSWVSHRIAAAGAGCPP
Sequence of FAAH (Homo sapiens (Human), UniProt O00519) (O00519 whole entry): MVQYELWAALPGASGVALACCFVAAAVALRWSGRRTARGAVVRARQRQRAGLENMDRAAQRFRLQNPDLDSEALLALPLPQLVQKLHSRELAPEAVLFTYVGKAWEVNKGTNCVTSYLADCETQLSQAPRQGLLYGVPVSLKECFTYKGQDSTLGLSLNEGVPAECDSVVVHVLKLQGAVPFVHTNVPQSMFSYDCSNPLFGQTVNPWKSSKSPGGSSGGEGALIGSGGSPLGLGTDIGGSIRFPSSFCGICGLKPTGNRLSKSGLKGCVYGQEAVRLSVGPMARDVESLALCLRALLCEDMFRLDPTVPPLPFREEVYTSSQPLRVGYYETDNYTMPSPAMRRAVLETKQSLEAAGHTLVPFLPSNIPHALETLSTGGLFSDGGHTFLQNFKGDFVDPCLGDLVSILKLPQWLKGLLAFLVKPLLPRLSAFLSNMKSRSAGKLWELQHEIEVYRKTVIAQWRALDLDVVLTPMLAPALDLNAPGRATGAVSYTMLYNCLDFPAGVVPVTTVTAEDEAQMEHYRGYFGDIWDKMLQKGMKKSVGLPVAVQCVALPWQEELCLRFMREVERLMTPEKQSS
Sequence of FAAH (Mus musculus (Mouse), UniProt O08914) (O08914 whole entry): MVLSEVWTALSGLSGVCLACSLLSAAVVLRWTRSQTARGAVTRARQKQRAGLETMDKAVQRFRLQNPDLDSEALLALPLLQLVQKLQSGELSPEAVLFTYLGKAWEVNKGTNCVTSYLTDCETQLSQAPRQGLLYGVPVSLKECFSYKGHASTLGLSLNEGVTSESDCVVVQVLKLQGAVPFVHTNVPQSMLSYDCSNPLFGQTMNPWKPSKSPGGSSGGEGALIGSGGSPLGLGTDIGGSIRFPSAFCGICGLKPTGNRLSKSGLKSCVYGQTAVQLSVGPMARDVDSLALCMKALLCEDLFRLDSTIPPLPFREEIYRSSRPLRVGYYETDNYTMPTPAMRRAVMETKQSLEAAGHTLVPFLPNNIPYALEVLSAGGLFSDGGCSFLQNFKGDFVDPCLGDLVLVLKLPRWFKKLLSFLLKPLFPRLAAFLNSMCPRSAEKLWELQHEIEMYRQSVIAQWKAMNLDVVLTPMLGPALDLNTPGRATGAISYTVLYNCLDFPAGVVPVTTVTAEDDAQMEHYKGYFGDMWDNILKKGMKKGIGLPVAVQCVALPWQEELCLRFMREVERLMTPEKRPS
Sequence of MAGL (Homo sapiens (Human), UniProt Q99685) (Q99685 whole entry): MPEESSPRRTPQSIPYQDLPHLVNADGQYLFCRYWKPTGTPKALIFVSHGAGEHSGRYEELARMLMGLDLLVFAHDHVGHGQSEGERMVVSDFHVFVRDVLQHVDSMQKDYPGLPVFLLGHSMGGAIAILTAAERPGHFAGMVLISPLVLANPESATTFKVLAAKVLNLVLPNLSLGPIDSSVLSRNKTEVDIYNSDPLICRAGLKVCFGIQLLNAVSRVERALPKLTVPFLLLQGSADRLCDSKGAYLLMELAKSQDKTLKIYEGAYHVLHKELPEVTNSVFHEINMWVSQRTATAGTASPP

With `CC(=O)N(C)c1cnn(C(=O)N2CC3CN(Cc4ccccc4Cl)CC3C2)c1` (stereo not drawn) [Example 9, N-(1-(5-(2-chlorobenzyl)octahydropyrrolo[3,4-c]pyrrole-2-carbonyl)-1H-pyrazol-4-yl)-N-methylacetamide], at MAGL [1], the IC50 fell in the range of 100 to 1000 nM and the inhibition at 1 µM is at least 75%. On FAAH [2], the IC50 is at most 100 nM and the inhibition at 1 µM was at least 75%. On MAGL [3], the inhibition at 5 mg/kg was in the range of 50 to 75%.

Regarding `CC(=O)N(C)c1cnn(C(=O)N2CC3CN(Cc4ccc(Cl)cc4)CC3C2)c1` (stereo not drawn) [Example 11, N-(1-(5-(4-chlorobenzyl)octahydropyrrolo[3,4-c]pyrrole-2-carbonyl)-1H-pyrazol-4-yl)-N-methylacetamide], at MAGL [1], the IC50 fell in the range of 100 to 1000 nM and the inhibition at 1 µM is at least 75%. Also, at FAAH [2], the IC50 is at most 100 nM and the inhibition at 1 µM is at least 75%. Besides, the inhibition at 5 mg/kg on MAGL [3] was at least 75%.

For the molecule `CC(=O)N(C)c1cnn(C(=O)N2CCC3(CCN(Cc4ccccc4Cl)C3)C2)c1` (stereo not drawn) [Example 50, N-(1-(7-(2-chlorobenzyl)-2,7-diazaspiro[4.4]nonane-2-carbonyl)-1H-pyrazol-4-yl)-N-methylacetamide], the results for the IC50 at MAGL [1] and on FAAH [2] were 100 to 1000 nM and at most 100 nM, respectively. The inhibition at 1 µM on MAGL [1] is 50 to 75%; on FAAH [2] it was at least 75%. Also, at MAGL [3], the inhibition at 5 mg/kg is at least 75%.

As for `CC(=O)N(C)c1cnn(C(=O)N2CCC3(CCN(Cc4ccccc4C(F)(F)F)C3)C2)c1` (stereo not drawn) [Example 58, N-methyl-N-(1-(7-(2-(trifluoromethyl)benzyl)-2,7-diazaspiro[4.4]nonane-2-carbonyl)-1H-pyrazol-4-yl)acetamide], the IC50 at MAGL [1] was 100 to 1000 nM; at FAAH [2], at most 100 nM. Besides, the inhibition at 1 µM at MAGL [1] and at FAAH [2] was at least 75% throughout. In addition, the inhibition at 5 mg/kg on MAGL [3] is at least 75%.

Turning to `CC(=O)N(C)c1cnn(C(=O)N2CCC3(CCN(Cc4cccc(F)c4)C3)C2)c1` (stereo not drawn) [Example 79, N-(1-(7-(3-fluorobenzyl)-2,7-diazaspiro[4.4]nonane-2-carbonyl)-1H-pyrazol-4-yl)-N-methylacetamide], the inhibition at 10 µM at MAGL [4] and on FAAH [5] was at least 75% in each case. Moreover, the inhibition at 1 µM on MAGL [1] was 0 to 25%; at FAAH [2] it was at least 75%.

`CC(=O)N(C)c1cnn(C(=O)N2CCC3(CCN(Cc4cccc(C)c4)C3)C2)c1` (stereo not drawn) [Example 80, N-methyl-N-(1-(7-(3-methylbenzyl)-2,7-diazaspiro[4.4]nonane-2-carbonyl)-1H-pyrazol-4-yl)acetamide]: the inhibition at 10 µM on MAGL [4] and at FAAH [5] was at least 75% each time. In addition, the results for the inhibition at 1 µM on MAGL [1] and at FAAH [2] were 0 to 25% and 50 to 75%, respectively.

As for `COc1cccc(CN2CCC3(CCN(C(=O)n4cc(N(C)C(C)=O)cn4)C3)C2)c1` (stereo not drawn) [Example 81, N-(1-(7-(3-methoxybenzyl)-2,7-diazaspiro[4.4]nonane-2-carbonyl)-1H-pyrazol-4-yl)-N-methylacetamide], the inhibition at 10 µM at MAGL [4] and at FAAH [5] was at least 75% throughout. The inhibition at 1 µM at MAGL [1] was 0 to 25%; at FAAH [2], 50 to 75%.

As for `CC(=O)N(C)c1cnn(C(=O)N2CC3(CCN(Cc4ccccc4C(F)(F)F)CC3)C2)c1` [Example 90, N-methyl-N-(1-(7-(2-(trifluoromethyl)benzyl)-2,7-diazaspiro[3.5]nonane-2-carbonyl)-1H-pyrazol-4-yl)acetamide], the inhibition at 10 µM was 25 to 50% at MAGL [4] and at least 75% at FAAH [5]. For the same molecule, the inhibition at 1 µM was 0 to 25% at MAGL [1] and at least 75% at FAAH [2].

Take `CC(=O)N(C)c1cnn(C(=O)N2C[C@H]3C[C@@H](NCc4cccc(Cl)c4)C[C@H]3C2)c1` [Example 134, N-(1-(cis-5-(3-chlorobenzylamino)octahydrocyclopenta[c]pyrrole-2-carbonyl)-1H-pyrazol-4-yl)-N-methylacetamide]: the inhibition at 10 µM on MAGL [4] and on FAAH [5] was at least 75% in each case. In addition, the inhibition at 1 µM at MAGL [1] is 0 to 25%; at FAAH [2], at least 75%.

In the case of `CC(=O)N(C)c1cnn(C(=O)N2C[C@H]3C[C@H](N(C)Cc4ccc(Cl)cc4)C[C@H]3C2)c1` [Example 148, N-(1-(trans-5-((4-chlorobenzyl)(methyl)amino)octahydrocyclopenta[c]pyrrole-2-carbonyl)-1H-pyrazol-4-yl)-N-methylacetamide], the half-maximal inhibitory concentration (IC50) on MAGL [1] and at FAAH [2] was at most 100 nM in each case. Further, the inhibition at 1 µM at MAGL [1] and on FAAH [2] was at least 75% in each case. At MAGL [3], the inhibition at 5 mg/kg is at least 75%.

Regarding `CC(=O)N(C)c1cnn(C(=O)N2C[C@H]3C[C@H](N(Cc4ccccc4Cl)C(C)=O)C[C@H]3C2)c1` [Example 172, N-(2-chlorobenzyl)-N-(trans-2-(4-(N-methylacetamido)-1H-pyrazole-1-carbonyl)octahydrocyclopenta[c]pyrrol-5-yl)acetamide], on MAGL [1], the IC50 is at most 100 nM and the inhibition at 1 µM is at least 75%. Further, on FAAH [2], the IC50 was 1000 to 10000 nM and the inhibition at 1 µM fell in the range of 0 to 25%. Moreover, on MAGL [3], the inhibition at 5 mg/kg is 0 to 25%.

On to `COc1ccccc1CN1CC2CN(C(=O)n3cc(N(C)C(C)=O)cn3)CC2C1` (stereo not drawn) [Example 183, N-(1-(5-(2-methoxybenzyl)octahydropyrrolo[3,4-c]pyrrole-2-carbonyl)-1H-pyrazol-4-yl)-N-methylacetamide], for which the inhibition at 10 µM at MAGL [4] and at FAAH [5] was at least 75% each time. Further, the inhibition at 1 µM on MAGL [1] is 0 to 25%; at FAAH [2], at least 75%.

As to `CC(=O)Nc1cnn(C(=O)N2CCN(Cc3ccc(C(F)(F)F)cc3N3CCCC3)CC2)c1` [Example 217, N-(1-(4-(2-(pyrrolidin-1-yl)-4-(trifluoromethyl)benzyl)piperazine-1-carbonyl)-1H-pyrazol-4-yl)acetamide], at MAGL [1], the IC50 was at most 100 nM and the inhibition at 1 µM was at least 75%. Moreover, on FAAH [2], the IC50 lay within 1000 to 10000 nM and the inhibition at 1 µM is 25 to 50%. At MAGL [3], the inhibition at 5 mg/kg was at least 75%.

For the molecule `Cc1cc(-c2ccccc2)ccc1CN1CCN(C(=O)n2cc(NS(C)(=O)=O)cn2)CC1` [Example 219, N-(1-(4-((3-methyl-[1,1′-biphenyl]-4-yl)methyl)piperazine-1-carbonyl)-1H-pyrazol-4-yl)methanesulfonamide], the figures for the IC50 on MAGL [1] and at FAAH [2] were 1000 to 10000 nM and at most 100 nM, respectively. Moreover, the inhibition at 1 µM on MAGL [1] and on FAAH [2] was at least 75% each time. For the same molecule, at MAGL [3], the inhibition at 5 mg/kg was at least 75%.

As for `CC(=O)N(C)c1cnn(C(=O)N2CC3(CCN(Cc4ccc(-c5ccccc5)cc4C)CC3)C2)c1` [Example 222, N-methyl-N-(1-(7-((3-methyl-[1,1′-biphenyl]-4-yl)methyl)-2,7-diazaspiro[3.5]nonane-2-carbonyl)-1H-pyrazol-4-yl)acetamide], the values for the inhibition at 10 µM at MAGL [4] and on FAAH [5] were at least 75% and 50 to 75%, respectively. Moreover, the inhibition at 1 µM on MAGL [1] is 0 to 25%; at FAAH [2], at least 75%.

With `CC(=O)N(C)c1cnn(C(=O)N2CC3CN(Cc4ccc(CN5CCOCC5)cc4)CC3C2)c1` (stereo not drawn) [Example 225, N-methyl-N-(1-(5-(4-(morpholinomethyl)benzyl)octahydropyrrolo[3,4-c]pyrrole-2-carbonyl)-1H-pyrazol-4-yl)acetamide], the inhibition at 10 µM on MAGL [4] and at FAAH [5] was at least 75% in each case. For the same molecule, the inhibition at 1 µM was in the range of 0 to 25% at MAGL [1] and 25 to 50% on FAAH [2].

Regarding `CC(=O)N(C)c1cnn(C(=O)N2CCC3(CCN(Cc4ccc(CN5CCOCC5)cc4)C3)C2)c1` (stereo not drawn) [Example 231, N-methyl-N-(1-(7-(4-(morpholinomethyl)benzyl)-2,7-diazaspiro[4.4]nonane-2-carbonyl)-1H-pyrazol-4-yl)acetamide], the inhibition at 10 µM at MAGL [4] was at least 75%; at FAAH [5], 25 to 50%. Moreover, the inhibition at 1 µM at MAGL [1] and on FAAH [2] was 0 to 25% each time.

Regarding `CC(=O)N(C)c1cnn(C(=O)N2CCC3(CCN(Cc4cccc(Oc5ccccc5)c4)C3)C2)c1` (stereo not drawn) [Example 236, N-methyl-N-(1-(7-(3-phenoxybenzyl)-2,7-diazaspiro[4.4]nonane-2-carbonyl)-1H-pyrazol-4-yl)acetamide], at MAGL [1], the IC50 lay within 100 to 1000 nM and the inhibition at 1 µM is at least 75%. Besides, at FAAH [2], the IC50 is at most 100 nM and the inhibition at 1 µM is at least 75%. Further, at MAGL [3], the inhibition at 5 mg/kg was in the range of 25 to 50%.
